# Measurements reported in patent US10028992B2, “Methods of treating muscular dystrophy” (BOARD OF REGENTS OF THE NEVADA SYSTEM OF HIGHER EDUCATION …, priority 2012, dated 2018).
# Read-outs that look alike come from different tables or passages of the source.
# Test system: α7 integrin promoter
# Experiment: muscle cell-based assay: α7βgal+/− myoblasts/myotubes, LacZ reporter, β-galactosidase cleavage of FDG
# Parameters: species or system mouse; Results in α7+/− β-galactosidase assay: scale not given here
# Details: for Results in α7+/− β-galactosidase assay: Myoblasts; for AC50: log of AC50, given with negative sign, unit of AC50 not given, read-out: Fit Log AC50 (converted); for EC50: read-out: Fit LogAC50 (converted)
# Procedure, shortened: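 Fluorescein generated from FDG by β-galactosidase reports α7 integrin promoter activity in differentiated myoblasts from α7+/− LacZ knock-in pups. Screening hits then went to dose-response, western blotting and a myostatin counterscreen.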
# [1] = Table 12, fitted activity at zero concentration
# [2] = Table 12 Compound data, concentration-response curve fit
# [3] = Mus musculus, given as log AC50 (negative values)
# [4] = curve class number, key not given
# [5] = curve fit, activity at zero concentration
smiles,measurement,setting,value
CC(C(=O)Nc1ccc(C#N)cc1)N(C)CC(=O)Nc1cccc(F)c1 (stereo not shown) [drawing 629],Results in α7+/− β-galactosidase assay,0.5 uM,−0.05058
same,Results in α7+/− β-galactosidase assay,1 uM,−0.1543
same,Results in α7+/− β-galactosidase assay,5 uM,−0.4207
same,Results in α7+/− β-galactosidase assay,10 uM,−0.5078
same,Results in α7+/− β-galactosidase assay,20 uM,−0.8278
same,Results in α7+/− β-galactosidase assay,40 uM,−0.7653
NS(=O)(=O)c1ccc(NC(=O)c2cc(-c3ccccc3O)[nH]n2)cc1 [Compound 105],AC50,"Mus musculus, Table 12",10 µM
same,Fit HillSlope,"Table 12, curve fit",3.5117
same,Fit Zero Activity [%],[1],16.8467%
same,Fit Curve Class,"Table 12, key not given",2.1
same,Score,[2],43
Cn1c(=O)c2c(nc(Sc3ncnn3CC(=O)NC3CCCCC3)n2C)n(C)c1=O [Compound 201],EC50,[3],11.2 µM
same,Score,Table 12 compound data,42
same,Fit Curve Class,[4],2.1
same,Fit HillSlope,curve fit,2.3531
same,Fit Zero Activity [%],[5],−19.8816%
O=C(Cn1nc(-c2ccc(Cl)cc2)ccc1=O)N1CCC2(CC1)OCCO2 [Compound 221],Fit Curve Class,,2.2
same,Fit HillSlope,,4.095
same,Fit Zero Activity [%],,7%
same,Score,,41
same,EC50,Mus musculus,11.2 µM
CCOc1ccccc1NC(=O)c1cccc2c1C(=O)N(C1CCCCC1)C2 [Compound 15],AC50,"Mus musculus, Table 12",3.16 µM
same,Emax,"Mus musculus, read-out: Max Response [%]",73.6%
same,Fit HillSlope,"Table 12, curve fit",1.6259
same,Fit Zero Activity [%],[1],−16.1195%
same,Fit Curve Class,"Table 12, key not given",1.1
same,Score,[2],84
N#CC1=C2SCN(c3ccccc3)CN2C(=O)CC1c1cccs1 (stereo not shown) [drawing 568],Results in α7+/− β-galactosidase assay,0.5 uM,−0.02125
same,Results in α7+/− β-galactosidase assay,1 uM,−0.07703
same,Results in α7+/− β-galactosidase assay,5 uM,−0.07651
same,Results in α7+/− β-galactosidase assay,10 uM,−0.05714
same,Results in α7+/− β-galactosidase assay,20 uM,0.1121
same,Results in α7+/− β-galactosidase assay,40 uM,−0.08344
Cc1ccc(/C=C2\C(=O)Nc3ccccc32)o1 [drawing 564],Results in α7+/− β-galactosidase assay,0.5 uM,0.06962
same,Results in α7+/− β-galactosidase assay,1 uM,0.01537
same,Results in α7+/− β-galactosidase assay,5 uM,−0.08809
same,Results in α7+/− β-galactosidase assay,10 uM,−0.1824
same,Results in α7+/− β-galactosidase assay,20 uM,−0.2196
same,Results in α7+/− β-galactosidase assay,40 uM,−0.6995
COc1ccccc1NS(=O)(=O)c1cc(NC(=O)c2ccc(Cl)nc2)ccc1N1CCCC1 [drawing 566],Results in α7+/− β-galactosidase assay,0.5 uM,0.1257
same,Results in α7+/− β-galactosidase assay,1 uM,0.1127
same,Results in α7+/− β-galactosidase assay,5 uM,0.06786
same,Results in α7+/− β-galactosidase assay,10 uM,0.0849
same,Results in α7+/− β-galactosidase assay,20 uM,−0.1817
same,Results in α7+/− β-galactosidase assay,40 uM,−0.2311
Cc1nc(O)nc(O)c1S(=O)(=O)Nc1ccc(F)cc1Cl [drawing 337],"Results in a α7+/− β-galactosidase assay, Myotubes, 0.5 uM","Myotubes, compound at 0.5 uM",0.2345
same,"Results in a α7+/− β-galactosidase assay, Myotubes, 1 uM","Myotubes, compound at 1 uM",0.05045
same,"Results in a α7+/− β-galactosidase assay, Myotubes, 5 uM","Myotubes, compound at 5 uM",0.06886
same,"Results in a α7+/− β-galactosidase assay, Myotubes, 10 uM","Myotubes, compound at 10 uM",0.09509
same,"Results in a α7+/− β-galactosidase assay, Myotubes, 20 uM","Myotubes, compound at 20 uM",−0.05815
same,"Results in a α7+/− β-galactosidase assay, Myotubes, 40 uM","Myotubes, compound at 40 uM",−0.1517
COc1ccc(N(CC(=O)NCCC(C)C)C(=O)c2snc(C(=O)NC3CCCCC3)c2N)c(OC)c1 [Compound 98],AC50,"Mus musculus, Table 12",10 µM
same,Fit HillSlope,"Table 12, curve fit",4.5045
same,Fit Zero Activity [%],[1],−0.0479%
same,Fit Curve Class,"Table 12, key not given",2.1
same,Score,[2],43
CC1(C)Cc2c(cnn2-c2cccc(F)c2)C(NC(=O)CCc2cnccn2)C1 (stereo not shown) [Compound 154],EC50,[3],3.16 µM
same,Score,Table 12 compound data,42
same,Fit Curve Class,[4],2.1
same,Fit HillSlope,curve fit,0.9
same,Fit Zero Activity [%],[5],−46.353%
